Assay results: patent US20230146675A1, “PYRIMIDO[5,4-d]PYRIMIDINE DERIVATIVES AS ENT INHIBITORS FOR THE TREATMENT OF CANCERS, AND COMBINATION THEREOF WITH ADENOSINE RECEPTOR ANTAGONISTS” (ITEOS BELGIUM SA, priority 2020, published 2023)

Biological target: T1, human ENT1 (Homo sapiens, UniProt Q99808)
T1 sequence (Q99808 1-456): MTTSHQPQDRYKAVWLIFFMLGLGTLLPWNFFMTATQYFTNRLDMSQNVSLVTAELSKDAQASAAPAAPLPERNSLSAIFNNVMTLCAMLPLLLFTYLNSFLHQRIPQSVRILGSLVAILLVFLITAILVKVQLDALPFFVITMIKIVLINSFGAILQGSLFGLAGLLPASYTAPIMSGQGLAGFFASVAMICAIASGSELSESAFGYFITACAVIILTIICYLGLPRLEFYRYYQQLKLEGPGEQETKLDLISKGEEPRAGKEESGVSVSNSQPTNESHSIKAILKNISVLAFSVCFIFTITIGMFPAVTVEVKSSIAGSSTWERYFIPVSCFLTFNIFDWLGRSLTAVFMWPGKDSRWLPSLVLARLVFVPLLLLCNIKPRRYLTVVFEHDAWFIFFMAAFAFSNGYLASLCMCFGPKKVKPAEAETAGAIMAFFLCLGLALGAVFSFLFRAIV
Assay: ENT1 binding assay (competition with Sahenta-DY647 on JAR cells)
Design: JAR cells expressing ENT1 were bought from ATCC; host or cells: JAR cells
Conditions: binned IC50
Experimental: Purpose. […] By measuring the fluorescence at the end of the assay we could assess the binding potency of the compounds of the present invention.
JAR cells were resuspended in the described buffer. Compounds of the present invention and Sahenta-DY647 were diluted 200× in the described buffer.
The total volume of the reaction was 100 μL (50 μL of cells, 25 μL of the compounds of the present invention and 25 μL of Sahenta-DY647) in a 96 well plate, U-bottom (Greiner®, #650-180). The plates were washed 2× by centrifugation (4 min, 400 rcf at 4° C.) in the same buffer.

| SMILES | IC50 |
| --- | --- |
| COCCN(CCOC)c1nc(N2CCN(C)C(=O)C2)c2nc(N(CCOC)CCOC)nc(N(C)Cc3cccc(OC)c3)c2n1 [Compound 235, 4-(2,6-bis(bis(2-methoxyethyl)amino)-8-((3-methoxybenzyl)(methyl)amino)pyrimido[5,4-d]pyrimidin-4-yl)-1-methylpiperazin-2-one] | < 100 nM |
| COCCN(CCOC)c1nc(N2CCN(C)C(=O)C2)c2nc(N(CCOC)CCOC)nc(N(C)Cc3ccc(F)c(F)c3)c2n1 [Compound 239, 4-(2,6-bis(bis(2-methoxyethyl)amino)-8-((3,4-difluorobenzyl)(methyl)amino)pyrimido[5,4-d]pyrimidin-4-yl)-1-methylpiperazin-2-one] | < 100 nM |
| CCCN(C)c1nc(N(CCOC)CCOC)nc2c(N3CC(O)(C(F)(F)F)C3)nc(N(CCOC)CCOC)nc12 [Compound 13, 1-(2,6-bis(bis(2-methoxyethyl)amino)-8-(methyl(propyl)amino)pyrimido[5,4-d]pyrimidin-4-yl)-3-(trifluoromethyl)azetidin-3-ol] | < 100 nM |
| COCCN(CCOC)c1nc(N2CC(O)(C(F)(F)F)C2)c2nc(N(CCOC)CCOC)nc(N3CC(O)(C(F)(F)F)C3)c2n1 [Compound 11, 1,1′-(2,6-bis(bis(2-methoxyethyl)amino)pyrimido[5,4-d]pyrimidine-4,8-diyl)bis(3-(trifluoromethyl)azetidin-3-ol)] | < 100 nM |
| COCCN(CCOC)c1nc(N2CCC(OC)CC2)c2nc(N(CCOC)CCOC)nc(N3CCCC3)c2n1 [Compound 89, N2,N2,N6,N6-tetrakis(2-methoxyethyl)-4-(4-methoxypiperidin-1-yl)-8-(pyrrolidin-1-yl)pyrimido[5,4-d]pyrimidine-2,6-diamine] | 100 to 500 nM |
| COCCN(CCO)c1nc(N2CCN(C)C(=O)C2)c2nc(N(CCOC)CCOC)nc(N3CCC(OC)CC3)c2n1 [Compound 275, 4-(6-(bis(2-methoxyethyl)amino)-2-((2-hydroxyethyl)(2-methoxyethyl)amino)-8-(4-methoxypiperidin-1-yl)pyrimido[5,4-d]pyrimidin-4-yl)-1-methylpiperazin-2-one] | < 100 nM |
| COCCN(CCOC)c1nc(N2CCOC(C)C2)c2nc(N(CCOC)CCOC)nc(N3CCC(OC)CC3)c2n1 (stereo not shown) [Compound 113, N2,N2,N6,N6-tetrakis(2-methoxyethyl)-4-(4-methoxypiperidin-1-yl)-8-(2-methylmorpholino)pyrimido[5,4-d]pyrimidine-2,6-diamine] | 100 to 500 nM |
| COCCN(CCOC)c1nc(N2CCN(C)C(=O)C2)c2nc(N(CCOC)CCOC)nc(N(C)Cc3cccc(C#N)c3)c2n1 [Compound 237, 3-(((2,6-bis(bis(2-methoxyethyl)amino)-8-(4-methyl-3-oxopiperazin-1-yl)pyrimido[5,4-d]pyrimidin-4-yl)(methyl)amino)methyl)benzonitrile] | < 100 nM |
| COCCN(CCOC)c1nc(N2CCC(OC)CC2)c2nc(N(CCOC)CCOC)nc(NCC3CCOC3)c2n1 (stereo not shown) [Compound 57, N2,N2,N6,N6-tetrakis(2-methoxyethyl)-8-(4-methoxypiperidin-1-yl)-N4-((tetrahydrofuran-3-yl)methyl)pyrimido[5,4-d]pyrimidine-2,4,6-triamine] | 500 to 1000 nM |
| COC1CCN(c2nc(N(CCO)CCO)nc3c(N4CCN(C)C(=O)C4)nc(N(CCO)CCO)nc23)CC1 [Compound 321, 4-(2,6-bis(bis(2-hydroxyethyl)amino)-8-(4-methoxypiperidin-1-yl)pyrimido[5,4-d]pyrimidin-4-yl)-1-methylpiperazin-2-one] | 500 to 1000 nM |
| COCCN(CCOC)c1nc(N2CCC(OC)CC2)c2nc(N(CCOC)CCOC)nc(OCc3ccc(F)c(OC)c3)c2n1 [Compound 157, 4-((4-fluoro-3-methoxybenzyl)oxy)-N2,N2,N6,N6-tetrakis(2-methoxyethyl)-8-(4-methoxypiperidin-1-yl)pyrimido[5,4-d]pyrimidine-2,6-diamine] | < 100 nM |
| COCCN(CCOC)c1nc(N2CCN(C)C(=O)C2)c2nc(N3CCn4ncnc4C3)nc(N3CCC(OC)CC3)c2n1 [Compound 283, 4-(2-(bis(2-methoxyethyl)amino)-6-(5,6-dihydro-[1,2,4]triazolo[1,5-a]pyrazin-7(8H)-yl)-8-(4-methoxypiperidin-1-yl)pyrimido[5,4-d]pyrimidin-4-yl)-1-methylpiperazin-2-one] | 500 to 1000 nM |
| COCCN(CCOC)c1nc(N2CCC(OC)CC2)c2nc(N(CCOC)CCOC)nc(NCc3cccc(S(C)(=O)=O)c3)c2n1 [Compound 148, N2,N2,N6,N6-tetrakis(2-methoxyethyl)-8-(4-methoxypiperidin-1-yl)-N4-(3-(methylsulfonyl)benzyl)pyrimido[5,4-d]pyrimidine-2,4,6-triamine] | 100 to 500 nM |
| COCCN(CCOC)c1nc(N2CCN(C)C(=O)C2)c2nc(N(CCOC)CCOC)nc(NCc3cccc(F)c3)c2n1 [Compound 207, 4-(2,6-bis(bis(2-methoxyethyl)amino)-8-((3-fluorobenzyl)amino)pyrimido[5,4-d]pyrimidin-4-yl)-1-methylpiperazin-2-one] | < 100 nM |
| COCCN(CCOC)c1nc(N2CCN(c3ncn(C)n3)CC2)c2nc(N(CCOC)CCOC)nc(NCc3cccc(C(N)=O)c3)c2n1 [Compound 229, 3-(((2,6-bis(bis(2-methoxyethyl)amino)-8-(4-(1-methyl-1H-1,2,4-triazol-3-yl)piperazin-1-yl)pyrimido[5,4-d]pyrimidin-4-yl)amino)methyl)benzamide] | 100 to 500 nM |
| COCCN(CCOC)c1nc(N2CC(CO)C2)c2nc(N(CCOC)CCOC)nc(N3CCC(OC)CC3)c2n1 [Compound 92, (1-(2,6-bis(bis(2-methoxyethyl)amino)-8-(4-methoxypiperidin-1-yl)pyrimido[5,4-d]pyrimidin-4-yl)azetidin-3-yl)methanol] | 100 to 500 nM |
| COCCN(CCOC)c1nc(N2CCn3cncc3C2)c2nc(N(CCOC)CCOC)nc(N3CCC(OC)CC3)c2n1 [Compound 114, 4-(5,6-dihydroimidazo[1,5-a]pyrazin-7(8H)-yl)-N2,N2,N6,N6-tetrakis(2-methoxyethyl)-8-(4-methoxypiperidin-1-yl)pyrimido[5,4-d]pyrimidine-2,6-diamine] | < 100 nM |
| COCCN(CCOC)c1nc(N2CCc3nocc3C2)c2nc(N(CCOC)CCOC)nc(N3CCN(C)C(=O)C3)c2n1 [Compound 254, 4-(2,6-bis(bis(2-methoxyethyl)amino)-8-(6,7-dihydroisoxazolo[4,3-c]pyridin-5(4H)-yl)pyrimido[5,4-d]pyrimidin-4-yl)-1-methylpiperazin-2-one] | < 100 nM |
| COCCN(CCOC)c1nc(N2CCn3ncnc3C2)c2nc(N(CCOC)CCOC)nc(N3CCS(=O)(=O)CC3)c2n1 [Compound 6, 4-(2,6-bis(bis(2-methoxyethyl)amino)-8-(5,6-dihydro-[1,2,4]triazolo[1,5-a]pyrazin-7(8H)-yl)pyrimido[5,4-d]pyrimidin-4-yl)thiomorpholine 1,1-dioxide] | 100 to 500 nM |
| COCCN(CCOC)c1nc(N2CCN(c3ncn(C)n3)CC2)c2nc(N(CCOC)CCOC)nc(NCc3cccc(S(N)(=O)=O)c3)c2n1 [Compound 228, 3-(((2,6-bis(bis(2-methoxyethyl)amino)-8-(4-(1-methyl-1H-1,2,4-triazol-3-yl)piperazin-1-yl)pyrimido[5,4-d]pyrimidin-4-yl)amino)methyl)benzenesulfonamide] | 100 to 500 nM |
| COCCN(CCOC)c1nc(N2CCN(c3ncn(C)n3)CC2)c2nc(N(CCOC)CCOC)nc(NCC(C)C)c2n1 [Compound 219, N4-isobutyl-N2,N2,N6,N6-tetrakis(2-methoxyethyl)-8-(4-(1-methyl-1H-1,2,4-triazol-3-yl)piperazin-1-yl)pyrimido[5,4-d]pyrimidine-2,4,6-triamine] | 100 to 500 nM |
| COCCN(CCOC)c1nc(N2CCN(C)C(=O)C2)c2nc(N3CCn4nncc4C3)nc(N3CCC(OC)CC3)c2n1 [Compound 288, 4-(2-(bis(2-methoxyethyl)amino)-6-(6,7-dihydro-[1,2,3]triazolo[1,5-a]pyrazin-5(4H)-yl)-8-(4-methoxypiperidin-1-yl)pyrimido[5,4-d]pyrimidin-4-yl)-1-methylpiperazin-2-one] | 100 to 500 nM |
| COCCN(CCOC)c1nc(N2CC[C@@H](OC)C2)c2nc(N(CCOC)CCOC)nc(N3CCC(OC)CC3)c2n1 [Compound 107, (R)-N2,N2,N6,N6-tetrakis(2-methoxyethyl)-4-(4-methoxypiperidin-1-yl)-8-(3-methoxypyrrolidin-1-yl)pyrimido[5,4-d]pyrimidine-2,6-diamine] | 100 to 500 nM |
| COCCN(CCOC)c1nc(N2CCN(C)C(=O)C2)c2nc(N(CCO)CCOC)nc(N3CCC(OC)CC3)c2n1 [Compound 276, 4-(2-(bis(2-methoxyethyl)amino)-6-((2-hydroxyethyl)(2-methoxyethyl)amino)-8-(4-methoxypiperidin-1-yl)pyrimido[5,4-d]pyrimidin-4-yl)-1-methylpiperazin-2-one] | 100 to 500 nM |
| COCCN(CCOC)c1nc(N2CCC(OC)CC2)c2nc(N(CCOC)CCOCCN3CCOCC3)nc(N3CCC(OC)CC3)c2n1 [Compound 45, N2,N2,N6-tris(2-methoxyethyl)-4,8-bis(4-methoxypiperidin-1-yl)-N6-(2-(2-morpholinoethoxy)ethyl)pyrimido[5,4-d]pyrimidine-2,6-diamine] | 100 to 500 nM |
